Experimental data: patent US20210330611A1, “THERAPY FOR NEUROLOGICAL DISEASES/DISORDERS” (priority 2020, published 2021)
Read-outs that look alike come from different tables or passages of the source.

Assays:
primary microglia = assay type: cell-based, rat; conditions: 48 h, FIG. 12
Procedure: (§1) FIGS. 12A-E. Effects of acivicin on microglia, macrophage and whole blood cell numbers. a, Representative images showing morphology and density of primary microglia treated with vehicle or acivicin for 48 h stained with nuclei marker Hoechst or CellMask Red Whole Cell Stain. Quantification of the total number of microglia. Data are representative of one experiment with technical replicates (open symbols). b, Representative confocal images showing morphology and density of control- and acivicin-treated BMDMs treated for 24 h. Scale bar, 100 μm. Insets depict digitally zoomed in areas of regions of interest. Quantification of the total number of BMDMs in the field of view. […] Cell viability of single CD45^+ cells was assessed by Sytox blue live/dead nuclei stain. Quantification of percent cell viability of CD45^+ BMDMs treated with acivicin or left untreated. Data are from 2 independent experiments with n=4 mice per group (mean±s.d.). d, Quantification of complete blood count analysis of white blood cells (WBCs), red blood cells (RBC), platelets (PLT) (left) and composition of WBCs (right) of blood samples from healthy mice treated with saline or acivicin for 10 days. […] Quantification of total microglia cell numbers in healthy mice treated with acivicin or saline. […]
Image-based HTS of small molecule inhibitors of microglia activation. […] The plates were stored in PBS for readout by imaging.

[1] = test system: proinflammatory gene expression; test: qRT-PCR of spinal cord extracts of MOG35-55 EAE mice; assay type: in vivo, mouse; conditions: FIG. 7h
[2] = cited from earlier work
2D2 T cells = test: Antigen-specific T-cell proliferation (BrdU, 2D2 T cells with MOG35-55-pulsed BMDMs); assay type: cell-based, mouse; conditions: 5, 0.5 or 0.05 μM, FIG. 14G, H
Procedure: T-cell proliferation assay. For antigen-specific T cell proliferation, näive CD4+ T cells were magnetically sorted from the TCR-transgenic 2D2 mice using naïve CD4+ T cell isolation kits (Miltenyi Biotec). […]. For non-antigen-specific T cell proliferation, naïve CD4^+ T cells were treated with acivicin and stimulated with mouse T-activator CD3/CD28 Dynabeads (Thermo Fisher Scientific) for 3 d. Cells were then fixed, permeabilized, and stained with FITC-conjugated anti-BrdU (BrdU Flow Kits, BD Biosciences).

microglia = assay type: in vivo, mouse; conditions: healthy mice, 14 days, FIG. 12
Procedure: as §1

[3] = test system: LPS-induced microglia activation; test: Image-based assay of LPS-induced microglia activation (HTS and dose response); assay type: cell-based, rat
MOG35-55 EAE = test: Active MOG35-55 EAE, clinical scores; assay type: in vivo, mouse; conditions: mouse, in vivo, 5 mg/kg

For `N[C@H](C(=O)O)[C@@H]1CC(Cl)=NO1` [Acivicin, (2S)-2-amino-2-[(5S)-3-chloro-4,5-dihydro-1,2-oxazol-5-yl] acetic acid], the “microglia cell number in vitro” value (primary microglia) is listed as “did not affect”, the proinflammatory gene expression [1] is listed as “markedly reduced” and the “toxicity in anti-cancer trials” value [2] is listed as “dose limiting toxicity”. For the same molecule, the “encephalitogenic T cell proliferation (BrdU) with APCs” value (2D2 T cells) was “suppressed”, the “microglia numbers in the spinal cord in vivo” value (microglia) was “did not affect” and the IC50 ([3]; Rattus norvegicus, Microglia, 48 h, Table 1, dose response 0.001-20 μM, triplicates, primary rat microglia, 48 h, read-out: LPS IC50) was 1 µM. The inhibition at 10 µM ([3]; Rattus norvegicus, Microglia, 48 h, primary microglia HTS, LPS stimulation, increased cell size (>800 μm^2) as marker of activation, read-out: LPS % inhibition) was 93%, the IC50 ([3]; Rattus norvegicus, Microglia, LPS-induced microglia activation, dose response, read-out: LPS IC50 (uM) (Suppl. Table 7)) was 1 µM and the IC50 ([3]; Rattus norvegicus, Microglia, Table 7, read-out: LPS_IC50) was 1.66 µM. For the same molecule, the IC50 ([3]; Rattus norvegicus, Microglia, dose response, LPS-induced microglia activation, read-out: LPS IC50) was 1 µM, the LPS-induced microglial activation ([3]; dose-dependent, FIG. 6a) was “inhibited” and the “disease onset and severity” value (MOG35-55 EAE) was “delayed”.
